Data reported in ChEMBL document CHEMBL2021834, “Novel sulfonylurea derivatives as H3 receptor antagonists. Preliminary SAR studies” (Eur J Med Chem, 2012).

target: Voltage-gated inwardly rectifying potassium channel KCNH2 (Homo sapiens, UniProt Q12809)
Sequence (Q12809 whole entry): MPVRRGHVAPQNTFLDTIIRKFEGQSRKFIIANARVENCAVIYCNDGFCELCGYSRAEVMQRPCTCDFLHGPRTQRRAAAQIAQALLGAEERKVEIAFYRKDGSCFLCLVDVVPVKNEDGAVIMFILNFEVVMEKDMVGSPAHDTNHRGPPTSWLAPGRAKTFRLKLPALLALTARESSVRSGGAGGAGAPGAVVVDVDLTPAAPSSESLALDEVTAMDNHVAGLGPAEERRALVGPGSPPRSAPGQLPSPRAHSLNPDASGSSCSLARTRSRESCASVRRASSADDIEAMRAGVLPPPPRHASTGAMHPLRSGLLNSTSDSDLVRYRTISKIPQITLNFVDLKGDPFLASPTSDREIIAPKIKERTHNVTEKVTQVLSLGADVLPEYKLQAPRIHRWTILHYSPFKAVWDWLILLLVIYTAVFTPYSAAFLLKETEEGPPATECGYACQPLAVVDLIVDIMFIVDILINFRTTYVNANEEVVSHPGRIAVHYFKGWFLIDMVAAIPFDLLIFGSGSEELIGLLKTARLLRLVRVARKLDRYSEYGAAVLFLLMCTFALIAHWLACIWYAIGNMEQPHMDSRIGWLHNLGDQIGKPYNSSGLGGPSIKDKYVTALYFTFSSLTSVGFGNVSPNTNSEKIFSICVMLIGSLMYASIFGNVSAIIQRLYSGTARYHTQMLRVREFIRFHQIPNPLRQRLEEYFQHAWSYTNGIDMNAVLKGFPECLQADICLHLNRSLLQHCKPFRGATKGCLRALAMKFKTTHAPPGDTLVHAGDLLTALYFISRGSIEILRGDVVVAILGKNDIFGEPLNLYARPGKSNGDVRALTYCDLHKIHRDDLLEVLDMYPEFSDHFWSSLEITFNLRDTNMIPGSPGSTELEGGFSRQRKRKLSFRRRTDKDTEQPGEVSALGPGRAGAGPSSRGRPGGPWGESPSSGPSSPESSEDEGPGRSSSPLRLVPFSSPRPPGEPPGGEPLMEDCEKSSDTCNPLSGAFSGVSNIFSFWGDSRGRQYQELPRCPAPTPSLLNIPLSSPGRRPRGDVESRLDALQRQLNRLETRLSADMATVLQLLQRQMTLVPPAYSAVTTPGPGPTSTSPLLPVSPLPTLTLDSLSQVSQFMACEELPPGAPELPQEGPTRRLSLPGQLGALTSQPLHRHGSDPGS
Description: Displacement of [3H] dofetilide from human ERG channel expressed in HEK293 cells after 45 mins by scintillation counting method

SMILES	IC50 [µM]
O=C(Nc1ccc(C(F)(F)F)cc1)NS(=O)(=O)c1ccc(OCCCCN2CCCC2)cc1	49.1
O=C(Nc1cc(Cl)ccc1Cl)NS(=O)(=O)c1ccc(OCCCCN2CCCCC2)cc1	> 100
CCOC(=O)C1CCN(CCCCOc2ccc(S(=O)(=O)NC(=O)Nc3ccccc3)cc2)CC1	> 100
O=C(Nc1cccc2ccccc12)NS(=O)(=O)c1ccc(OCCCN2CCCC2)cc1	> 100
O=C(Nc1ccccc1C(F)(F)F)NS(=O)(=O)c1ccc(OCCCN2CCCCC2)cc1	> 100
COc1ccc(NC(=O)NS(=O)(=O)c2ccc(OCCCN3CCCCC3)cc2)cc1	> 100
Cc1ccc(NC(=O)NS(=O)(=O)c2ccc(OCCCN3CCCCC3)cc2)cc1	> 100
CCOC(=O)C1CCN(CCCOc2ccc(S(N)(=O)=O)cc2)CC1	76.5
CCOC(=O)C1CCN(CCCCOc2ccc(S(N)(=O)=O)cc2)CC1	18.8
CC(C)NC(=O)NS(=O)(=O)c1ccc(OCCN2CCCC2)cc1	> 100
O=C(Nc1ccc(C(F)(F)F)cc1)NS(=O)(=O)c1ccc(OCCN2CCCC2)cc1	> 100
O=C(Nc1ccc(C(F)(F)F)cc1)NS(=O)(=O)c1ccc(OCCN2CCCCC2)cc1	> 100
CCOC(=O)C1CCN(CCOc2ccc(S(=O)(=O)NC(=O)Nc3ccccc3)cc2)CC1	> 100
O=C(Nc1ccccc1)NS(=O)(=O)c1ccc(OCCCN2CCCCC2)cc1	> 100
